Source: patent publication US20030176314A1, “Compounds for the treatment of pain” (priority 2001, published 2003)
Where two headings read alike, the source gives them in different places.

Legend:
rat NPFF2 receptor = molecular target: T1, rat NPFF2 receptor (Rattus norvegicus, UniProt Q9EQD2); experiment: Functional assay (agonist potency, intrinsic activity) at cloned rat NPFF2 receptor; type: cell-based; conditions: for rNPFF2 IA: Table 7, intrinsic activity; for Functional Activity rNPFF2 I.A. %: percent of maximum response elicited by neuropeptide FF; for EC50: read-out: Functional Activity rNPFF2 EC50
T1 construct: The full-length NPFF2 was amplified from rat spinal cord cDNA; expressed in transfected cells; host or cells: not given

rat NPFF1 receptor = molecular target: T2, rat NPFF1 receptor (Rattus norvegicus, UniProt Q9EP86); experiment: Functional assay (agonist potency, intrinsic activity) at cloned rat NPFF1 receptor; type: cell-based; conditions: for Functional Activity rNPFF1 I.A. %: percent of maximum response elicited by neuropeptide FF; for rNPFF1 IA: Table 7, intrinsic activity
T2 construct: expressed in transfected cells; host or cells: not given

[1] = agonist: IA>15%, antagonist: Ki≦1.2 mM and IA≦15% at the rat cloned NPFF receptors
[2] = Table 7, agonist potency, read-out: rNPFF1 EC50

T1 sequence (Q9EQD2 whole entry): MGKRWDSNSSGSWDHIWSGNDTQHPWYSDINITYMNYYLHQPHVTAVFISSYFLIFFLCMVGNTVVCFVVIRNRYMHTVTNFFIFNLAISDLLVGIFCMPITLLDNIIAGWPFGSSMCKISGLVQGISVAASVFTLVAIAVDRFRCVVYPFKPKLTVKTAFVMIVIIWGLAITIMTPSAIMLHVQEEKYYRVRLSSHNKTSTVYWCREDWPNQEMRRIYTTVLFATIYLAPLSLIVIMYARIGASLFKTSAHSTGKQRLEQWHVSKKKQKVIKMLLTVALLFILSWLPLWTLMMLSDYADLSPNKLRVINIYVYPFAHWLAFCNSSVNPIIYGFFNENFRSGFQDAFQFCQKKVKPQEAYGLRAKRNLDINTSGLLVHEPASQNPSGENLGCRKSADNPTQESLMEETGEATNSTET
T2 sequence (Q9EP86 whole entry): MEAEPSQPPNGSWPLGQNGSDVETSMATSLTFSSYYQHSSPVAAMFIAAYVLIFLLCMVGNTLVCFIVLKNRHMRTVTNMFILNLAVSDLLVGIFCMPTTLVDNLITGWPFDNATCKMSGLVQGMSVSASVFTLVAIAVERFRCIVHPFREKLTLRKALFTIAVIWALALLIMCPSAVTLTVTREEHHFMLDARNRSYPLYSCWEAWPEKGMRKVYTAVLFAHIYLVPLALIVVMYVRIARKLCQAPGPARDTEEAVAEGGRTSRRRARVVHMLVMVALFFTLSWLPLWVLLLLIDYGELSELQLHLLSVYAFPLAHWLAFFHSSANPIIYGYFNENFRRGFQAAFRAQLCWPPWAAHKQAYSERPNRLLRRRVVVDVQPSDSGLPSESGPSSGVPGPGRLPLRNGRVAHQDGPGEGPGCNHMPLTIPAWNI

Row | SMILES | rNPFF2 IA (rat NPFF2 receptor) [% NPFF] | further results
1 | CCCCOc1ccc2nc(NC(=N)N)nc(C)c2c1 [Compound 1012A, N-(6-butoxy-4-methyl-2-quinazolinyl)guanidine] | 80 | –
2 | N=C(N)NCCC[C@H](NS(=O)(=O)c1ccccc1[N+](=O)[O-])C(=O)N[C@@H](Cc1ccccc1)C(N)=O [Compound 1026B] | – | Functional Activity rNPFF1 I.A. % (rat NPFF1 receptor; Table 4): 79%; Functional Activity rNPFF2 I.A. % (rat NPFF2 receptor; Table 4): 59%
3 | CCCCCCCc1ccc2nc(NC(=N)N)nc(C)c2c1 [Compound 2006A, N-(6-heptyl-4-methyl-2-quinazolinyl)guanidine] | 47 | rNPFF1 IA (rat NPFF1 receptor): 38% NPFF
4 | N=C(N)NCCC[C@H](NS(=O)(=O)c1c(Cl)cccc1Cl)C(=O)N[C@@H](Cc1ccccc1)C(N)=O [Compound 1019B] | – | classification as agonist or antagonist at the NPFF1 receptor (rat NPFF1 receptor; [1]): agonists; classification as agonist or antagonist at the NPFF2 receptor (rat NPFF2 receptor; [1]): agonists
5 | Cc1nc(NC(=N)N)nc2ccc(OC(F)(F)F)cc12 [Compound 1030A, N-[4-methyl-6-(trifluoromethoxy)-2-quinazolinyl]guanidine] | 85 | –
6 | Cc1nc(NC(=N)N)nc2cc(OCc3ccccc3)ccc12 [Compound 1006A, N-[7-(benzyloxy)-4-methyl-2-quinazolinyl]guanidine] | 22 | rNPFF1 IA (rat NPFF1 receptor): 15% NPFF
7 | CCCCCOc1ccc2nc(NC(=N)N)nc(C)c2c1 [Compound 1031A, N-[4-methyl-6-(pentyloxy)-2-quinazolinyl]guanidine] | 66 | –
8 | Cc1nc(NC(=N)N)nc2cc(OC(F)(F)F)ccc12 [Compound 1036A, N-[4-methyl-7-(trifluoromethoxy)-2-quinazolinyl]guanidine] | 78 | –
9 | Cc1ccc2nc(NC(=N)N)nc(C)c2c1 [Compound 1002A, N-(4,6-dimethyl-2-quinazolinyl)guanidine] | 24 | –
10 | N=C(N)NCCC[C@H](NS(=O)(=O)c1c(F)cccc1F)C(=O)N[C@@H](Cc1ccccc1)C(N)=O [Compound 1004B] | – | Functional Activity rNPFF1 I.A. % (rat NPFF1 receptor; Table 4): 79%; Functional Activity rNPFF2 I.A. % (rat NPFF2 receptor; Table 4): 43%; EC50 (rat NPFF2 receptor; Table 4): > 3160 nM
11 | N=C(N)NCCC[C@H](NS(=O)(=O)c1ccc([N+](=O)[O-])cc1[N+](=O)[O-])C(=O)N[C@@H](Cc1ccccc1)C(N)=O [Compound 2002B] | – | Functional Activity rNPFF1 I.A. % (rat NPFF1 receptor; Table 4): 34%; Functional Activity rNPFF2 I.A. % (rat NPFF2 receptor; Table 4): 5%
12 | Cc1cc(NC(=N)N)nc2cc(F)ccc12 [Compound 4007A, N-(7-fluoro-4-methyl-2-quinolinyl)guanidine] | 17 | –
13 | Cc1nc(NC(=N)N)nc2ccc(OCc3ccccc3)cc12 [Compound 1028A, N-[6-(benzyloxy)-4-methyl-2-quinazolinyl]guanidine] | 79 | –
14 | COc1ccc(S(=O)(=O)N[C@@H](CCCNC(=N)N)C(=O)N[C@@H](Cc2ccccc2)C(N)=O)cc1OC [Compound 1015B] | – | Functional Activity rNPFF1 I.A. % (rat NPFF1 receptor; Table 4): 84%; Functional Activity rNPFF2 I.A. % (rat NPFF2 receptor; Table 4): 74%
15 | Cc1nc(NC(=N)N)nc2cc(Br)ccc12 [Compound 1014A, N-(7-bromo-4-methyl-2-quinazolinyl)guanidine] | 47 | –
16 | Cc1nc(NC(=N)N)nc2ccc(Br)cc12 [Compound 1026A, N-(6-bromo-4-methyl-2-quinazolinyl)guanidine] | 19 | –
17 | Cc1nc(NC(=N)N)nc2cc3c(cc12)C=CCC3 [Compound 1037A, N-(4-methyl-8,9-dihydrobenzo[g]quinazolin-2-yl)guanidine] | 71 | –
18 | Cc1nc(NC(=N)N)nc2ccc(-c3ccccc3)cc12 [Compound 1010A, N-(4-methyl-6-phenyl-2-quinazolinyl)guanidine] | 22 | –
19 | COc1cc2c(C)nc(NC(=N)N)nc2cc1C [Compound 1016A, N-(6-methoxy-4,7-dimethyl-2-quinazolinyl)guanidine] | 74 | –
20 | Cc1nc(NC(=N)N)nc2ccc(C3CCCCC3)cc12 [Compound 1029A, N-(6-cyclohexyl-4-methyl-2-quinazolinyl)guanidine] | 31 | rNPFF1 IA (rat NPFF1 receptor): 28% NPFF
21 | N=C(N)NCCC[C@H](NS(=O)(=O)c1ccc(F)cc1)C(=O)N[C@@H](Cc1ccccc1)C(N)=O [Compound 1005B] | – | Functional Activity rNPFF2 I.A. % (rat NPFF2 receptor; Table 4): 46%
22 | Cc1nc(NC(=N)N)nc2cc(C(C)C)ccc12 [Compound 1021A, N-(7-isopropyl-4-methyl-2-quinazolinyl)guanidine] | 76 | –
23 | N=C(N)NCCC[C@H](NS(=O)(=O)c1ccccc1Br)C(=O)N[C@@H](Cc1ccccc1)C(N)=O [Compound 2001B] | – | Functional Activity rNPFF1 I.A. % (rat NPFF1 receptor; Table 4): 81%; Functional Activity rNPFF2 I.A. % (rat NPFF2 receptor; Table 4): 9%
24 | CCCc1ccc2nc(NC(=N)N)nc(C)c2c1 [Compound 1008A, N-(4-methyl-6-propyl-2-quinazolinyl)guanidine] | 85 | –
25 | Cc1nc(NC(=N)N)nc2cc(OC(C)C)ccc12 [Compound 1025A, N-[4-methyl-7-(isopropoxy)-2-quinazolinyl]guanidine] | 27 | –

Row | SMILES | rNPFF2 IA (rat NPFF2 receptor) [% NPFF] | further results
26 | Cc1cc2nc(NC(=N)N)nc(C)c2cc1O [Compound 1017A, N-(6-hydroxy-4,7-dimethyl-2-quinazolinyl)guanidine] | 23 | –
27 | Cc1cc2nc(NC(=N)N)nc(C)c2cc1C [Compound 1015A, N-(4,6,7-trimethyl-2-quinazolinyl)guanidine] | 56 | –
28 | Cc1cc(NC(=N)N)nc2ccc3ccccc3c12 [Compound 4009A, N-(1-methylbenzo[f]quinolin-3-yl)guanidine] | 70 | –
29 | Cc1nc(NC(=N)N)nc2cc(C(C)O)ccc12 (stereo not shown) [Compound 1035A, N-[7-(1-hydroxyethyl)-4-methyl-2-quinazolinyl]guanidine] | 52 | –
30 | N=C(N)NCCC[C@H](NS(=O)(=O)c1ccc(Cl)cc1Cl)C(=O)N[C@@H](Cc1ccccc1)C(N)=O [Compound 1010B] | – | Functional Activity rNPFF2 I.A. % (rat NPFF2 receptor; Table 4): 28%
31 | Cc1ccc(S(=O)(=O)N[C@@H](CCCNC(=N)N)C(=O)N[C@@H](Cc2ccccc2)C(N)=O)cc1 [Compound 1007B] | – | Functional Activity rNPFF2 I.A. % (rat NPFF2 receptor; Table 4): 55%
32 | CCCCCCc1ccc2nc(NC(=N)N)nc(C)c2c1 [Compound 2005A, N-(6-hexyl-4-methyl-2-quinazolinyl)guanidine] | 81 | rNPFF1 IA (rat NPFF1 receptor): 56% NPFF
33 | CCCCCCCCc1ccc2nc(NC(=N)N)nc(C)c2c1 [Compound 1009A, N-(4-methyl-6-octyl-2-quinazolinyl)guanidine] | 22 | EC50 (rat NPFF1 receptor; [2]): 1490 nM
34 | Cc1cc(NC(=N)N)nc2ccc(-c3ccccc3)cc12 [Compound 4003A, N-(4-methyl-6-phenyl-2-quinolinyl)guanidine] | 26 | –
35 | Cc1nc(NC(=N)N)nc2ccc(CCCC(C)O)cc12 (stereo not shown) [Compound 1034A, N-(6-[1-(4-hydroxyl-pentyl)]-4-methyl-2-quinazolino)guanidine] | 101 | rNPFF1 IA (rat NPFF1 receptor): 63% NPFF
36 | Cc1ccc2nc(NC(=N)N)cc(C)c2c1 [Compound 4001A, N-(4,6-dimethyl-2-quinolinyl)guanidine] | 68 | –
37 | Cc1nc(NC(=N)N)nc2ccc(C(C)(C)C)cc12 [Compound 1004A, N-(6-tert-butyl-4-methyl-2-quinazolinyl)guanidine] | 90 | rNPFF1 IA (rat NPFF1 receptor): 36% NPFF
38 | Cc1cc(C)c2c(C)cc(NC(=N)N)nc2c1 [Compound 4008A, N-(4,5,7-trimethyl-2-quinolinyl)guanidine] | 65 | –
39 | Cc1ccc(Oc2ccc3nc(NC(=N)N)nc(C)c3c2)cc1 [Compound 1033A, N-[4-methyl-6-(4-methylphenoxy)-2-quinazolinyl]guanidine] | 51 | –
40 | N=C(N)NCCC[C@H](NS(=O)(=O)c1ccc(Cl)c(Cl)c1)C(=O)N[C@@H](Cc1ccccc1)C(N)=O [Compound 1022B] | – | Functional Activity rNPFF1 I.A. % (rat NPFF1 receptor; Table 4): 86%; EC50 (rat NPFF1 receptor; Table 4, read-out: Functional Activity rNPFF1 EC50): 1860 nM; Functional Activity rNPFF2 I.A. % (rat NPFF2 receptor; Table 4): 34%; EC50 (rat NPFF2 receptor; Table 4): > 3160 nM
41 | CCCCc1ccc2nc(NC(=N)N)nc(C)c2c1 [Compound 2004A, N-(6-butyl-4-methyl-2-quinazolinyl)guanidine] | 101 | rNPFF1 IA (rat NPFF1 receptor): 40% NPFF
42 | N=C(N)NCCC[C@@H](NS(=O)(=O)c1ccc(F)cc1)C(=O)N[C@@H](Cc1ccccc1)C(N)=O [Compound 1028B] | – | Functional Activity rNPFF1 I.A. % (rat NPFF1 receptor; Table 5): 46%; Functional Activity rNPFF2 I.A. % (rat NPFF2 receptor; Table 5): 62%
43 | Cc1nc(NC(=N)N)nc2cc3ccoc3cc12 [Compound 1039A, N-(4-methylfuro[2,3-g]quinazolin-2-yl)guanidine] | 78 | EC50 (rat NPFF1 receptor; [2]): > 10000 nM
44 | N#Cc1ccccc1S(=O)(=O)N[C@@H](CCCNC(=N)N)C(=O)N[C@@H](Cc1ccccc1)C(N)=O [Compound 1027B] | – | Functional Activity rNPFF1 I.A. % (rat NPFF1 receptor; Table 4): 52%; Functional Activity rNPFF2 I.A. % (rat NPFF2 receptor; Table 4): 48%
45 | Cc1nc(NC(=N)N)nc2ccc(Cc3ccccc3)cc12 [Compound 2003A, N-(6-benzyl-4-methyl-2-quinazolinyl)guanidine] | 89 | rNPFF1 IA (rat NPFF1 receptor): 56% NPFF
46 | COc1ccc2nc(NC(=N)N)cc(C)c2c1 [Compound 4004A, N-(6-methoxy-4-methyl-2-quinolinyl)guanidine] | 65 | –
47 | Cc1nc(NC(=N)N)nc2ccc(Oc3ccccc3)cc12 [Compound 1032A, N-(4-methyl-6-phenoxy-2-quinazolinyl)guanidine] | 93 | rNPFF1 IA (rat NPFF1 receptor): 31% NPFF
48 | Cc1nc(NC(=N)N)nc2cc(F)c(F)cc12 [Compound 1019A, N-(6,7-difluoro-4-methyl-2-quinazolinyl)guanidine] | 31 | –
49 | CCCCc1ccc2nc(NC(=N)N)cc(C)c2c1 [Compound 5001A, N-(6-butyl-4-methyl-2-quinolinyl)guanidine] | 82 | rNPFF1 IA (rat NPFF1 receptor): 28% NPFF
